Data reported in PMC6701825, “Antiproliferative and Antimigratory Effects of a Novel YAP–TEAD Interaction Inhibitor Identified Using in Silico Molecular Docking” (Journal of Medicinal Chemistry, 2019).

What was measured:
[1] = tested on: TEAD-dependent transcriptional activity; experiment: 8xTEAD secreted nanoluciferase (TEAD-NLUC) reporter assay in HeLa cells; format: cell-based, human; conditions: HeLa, indicated concentrations, 6 h
From the text: The shortlisted sets of 16 compounds were first assayed for their ability to inhibit TEAD-dependent transcriptional activity in HeLa cells that had been transduced with a recombinant lentiviral vector expressing secreted bioluminescent nanoluciferase (NLUC) reporter gene enzyme, which is expressed under the control of a promoter region containing eight TEAD DNA-binding elements (TEAD-NLUC).
Compounds were initially screened for ability to inhibit TEAD-dependent transcriptional activity in HeLa cells transduced with a lentiviral vector expressing secreted nanoluciferase under the control of multimerized TEAD consensus elements (5′-[…]-3′). 8xTEAD NanoLuc was generated by cloning the 8xTEAD promoter from the 8xTEAD-Luc plasmid (Addgene #34615) into the pENTR gateway entry vector (Promega). This was then recombined into pLNT-sec-Nluc-2A-eGFP destination vector (supplied by Tristan McKay; University of Manchester). Lentiviruses were generated by Viafect-mediated co-transfection of pLNT8x-TEAD-sec-Nluc-2A-eGFP, Δ8.9, and VSV-G vectors into HEK293T cells (ATCC), and lentiviral-containing culture supernatants were used to infect HeLa cells in the presence of 6 μg/mL polybrene. For compound screening, 8xTEAD NanoLuc-transduced HeLa cells were seeded at 2 × 10^4 cells/well in 96-well plates. After 48 h, the cells were washed in PBS and incubated with test compounds at the indicated concentrations for 2 h. The cells were washed again in PBS and incubated with the compound for a further 4 h. Conditioned culture medium (50 μL) was assayed for secreted nanoluciferase activity using NanoGlo activity assays kit (Promega) and a Glomax Discover luminometer.

[2] = tested on: HeLa cells; experiment: Live/dead cell viability assay (ethidium homodimer-1) in HeLa cells; format: cell-based; conditions: 6 hours
Procedure: Cell viability was quantified using the live/dead viability/cytotoxicity assay standard protocol (Invitrogen). Maximum cell death was quantified by incubating cells for 10 min with 0.1% Triton-X, followed by incubation with 0.4 μM ethidium homodimer-1 for an additional 10 min. Fluorescence was measured using a GloMax Discover multiplate reader (Promega).
Supplement Figure 3: Effect of shortlisted compounds on cell viability
(§1) HeLa cells transduced with TEAD-NLUC reporter were treated with indicated compounds at 100 µM for 6 hours (n=3). Cell viability was quantified by staining with 0.4 µM ethidium homodimer-1 and ethidium homodimer-1 uptake quantified by measuring fluorescence at 645 nm using a Glomax Discover plate reader.
(1 picture or pasted object on this page, not shown here)
as §1, with “Supplement Figure 6: Effect of CPD3, CPD3.1, CPD3.2 and CPD 3.3 on cell viability HeLa” for “HeLa”, “concentrations of CPD3, CPD3.1, CPD3.2 and CPD 3.3” for “compounds at 100 µM”, “plate” for “plate reader.”

[3] = indicated concentrations, HeLa (Supplement Figure 6)

Row | Compound | effect on TEAD-NLUC activity [1] | effect on cell viability [2, 3] | effect on cell viability ([2]; 100 µM, HeLa TEAD-NLUC cells)
1 | OCC(O)CN1CCNCC1 (centres unmarked) [CPD3.2] | Neither CPD3.2 nor CPD3.3 had any effect | Neither CPD3.2 nor CPD3.3 had any effect | –
2 | O=C(NCCn1ncc2c(N3CCN(c4ncccn4)CC3)ncnc21)C12CC3CC(CC(C3)C1)C2 [CPD8] | – | – | without significantly affecting cell viability
3 | O=C(O)c1ccco1 [CPD3.3] | Neither CPD3.2 nor CPD3.3 had any effect | Neither CPD3.2 nor CPD3.3 had any effect | –
